The values that follow come from patent US20060019907A1, “Guggulsterone: an inhibitor of nuclear factor - kappaB and IkappaBalpha kinase activation and uses thereof” (Research Development Foundation, priority 2004, published 2006).

Molecules are shown by their SMILES.

Common to all, as to type: cell-based, human
For test [1], the system named is NF-κB. Nature of the test: NF-κB-dependent reporter gene (SEAP) transcription. The method, then: NF-κB-dependent Reporter Gene Transcription: The effect of guggulsterone on TNF-induced NF-κB dependent reporter gene transcription was measured as previously described (Manna et al., 2000). Briefly, H1299 cells (5×10^5 cells/well) were plated in six-well plates and transiently transfected the next day by LIPOFECTAMINETM 2000 method with pNF-κB-SEAP using the manufacturer's protocol. To examine TNF-induced reporter gene expression, cells was transfected with 2 μg of the SEAP expression plasmid. After 18 hours, medium was removed, cells were rinsed and treated with various doses of guggulsterone for 4 hours and then treated with TNF. Twenty four hours later, the cell culture medium was harvested and analyzed for alkaline phosphatase (SEAP) activity essentially according to the protocol described by the manufacturer (Clontech, Palo Alto, Calif.) using a 96-well fluorescence plate reader ([…]; Labsystems, Chicago, Ill.) with excitation set at 360 nm and emission set at 460 nm.
Background: Reporter assays use an easily measured gene product as a stand-in for the process of interest.

Another test has as its system tumor cells. Nature of the test: Antiproliferative effects against tumor cells (MTT). The method, then:
Cytotoxicity Assay: Cytotoxicity was assayed by the modified tetrazolium salt 3-(4-5-dimethylthiozol-2-yl)2-5-diphenyl-tetrazolium bromide (MTT) assay (Bharti et al., 2003). […] Thereafter, 0.025 ml of MTT solution (5 mg/ml in PBS) was added to each well. After a 2 hour incubation at 37° C., 0.1 ml of the extraction buffer (20% SDS, 50% dimethylformamide) was added. After an overnight incubation at 37° C., the optical densities at 570 nm were measured using a 96-well multiscanner autoreader (Dynatech MR5000), with the extraction buffer as blank. The percent cytotoxicity was determined as follows: (1−(A570 of test sample)/(A570 of control sample)×100%.
Cytotoxicity assay. The cytotoxic effects of guggulsterone was determined by the MTT uptake method. Briefly, 5000 cells were incubated with guggulsterone in triplicate in a 96-well plate at 37° C. MTT solution was then added to each well. After a 2-h incubation at 37° C., extraction buffer (20% SDS, 50% dimethylformamide) was added, the cells were incubated overnight at 37° C., and the OD was then measured at 570 nm using a 96-well multiscanner (Dynex Technologies, MRX Revelation, Chantilly, Va.).

In another test the test system is U937 cells. Nature of the test: Thymidine incorporation assay. Particulars: 72 h. The method, then:
Thymidine incorporation assay. The antiproliferative effects of guggulsterone were also monitored by the thymidine incorporation method. For this, 5000 cells in 100 μL medium were cultured in triplicate in 96-well plates in the presence or absence of guggulsterone for 72 hours. At 6 hours before the completion of experiment, cells were pulsed with 0.5 μCi (0.0185 MBq) ^3H-thymidine, and the uptake of ^3H-thymidine was monitored by means of a Matrix-9600 β-counter (Packard Instruments, Downers Grove, Ill.).
On the technique in general: Uptake of a labelled nucleoside into DNA is a usual measure of proliferation.

The next test deals with KBM-5 cells. Nature of the test: Live and Dead (calcein AM) assay, TNF plus guggulsterone. Particulars: TNF in combination with guggulsterone, 24 hours. The source says: Live and Dead Assay: To measure apoptosis, the Live and Dead assay (Molecular Probes) was used, which determines intracellular esterase activity and plasma membrane integrity. This assay employs calcein, a polyanionic dye, which is retained within the live cells and provides green fluorescence. It also employs the ethidium […] dye (red fluorescence), which can enter the cells only through damaged membranes and bind to nucleic acids but is excluded by the intact plasma membrane of live cells. Briefly, 1×10^5 cells are incubated with 10 μM guggulsterone for 24 h and then treated with 1 nM TNF for 16 hours at 37° C. Cells are stained with the Live and Dead reagent (5 μM ethidium homodimer, 5 μM calcein-AM) and then incubated at 37° C. for 30 min. Cells were analyzed under a fluorescence microscope (Labophot-2).

Test [2] concerns NF-κB. Nature of the test: Constitutively active NF-κB by EMSA in U266 and MDA 1986 tumor cells. Particulars: 50 μM, 4 hours. As to the method:
NF-κB Activation: To determine NF-κB activation, EMSA was carried out as previously described (Chaturvedi et al., 2000). Briefly, nuclear extracts prepared from cells (2×10^6/ml) treated with TNF were incubated with ^32P-end-labeled 45-mer double-stranded NF-κB oligonucleotide (8 μg of protein with […] of DNA) from the human immunodeficiency virus long terminal repeat, 5′-[…] GGCGTGG-3′ (SEQ ID NO:1) (boldface indicates NF-κB binding sites), for 15 min at 37° C. The DNA-protein complex formed was separated from free oligonucleotide on 6.6% native polyacrylamide gels. A double-stranded mutated oligonucleotide, 5′-[…]-3′ (SEQ ID NO:2), was used to examine the specificity of binding of NF-κB to the DNA. The specificity of binding was also examined by competition with the unlabeled oligonucleotide. For supershift assays, nuclear extracts prepared from TNF-treated cells were incubated with antibodies against either the p50 or the p65 subunit of NF-κB for 30 min at room temperature before the complex was analyzed by EMSA. The dried gels were visualized, and radioactive bands were quantitated using a PHOSPHORIMAGER™ (Molecular Dynamics, Sunnyvale, Calif.) using IMAGEQUANT™ software.

The next test deals with IKK. Nature of the test: TNF-induced IKK activation, immune complex kinase assay. Particulars: H1299. The method, then: IKK Assay: To determine the effect of guggulsterone on TNF-induced IKK activation, IKK was analyzed by a method essentially as described previously (Shishodia et al., 2003). Briefly, IKK complex was precipitated from whole-cell extracts with antibody to IKKα and IKKβ, assayed in kinase assay using GST-IκBα (1-54) as a substrate, and resolved on 10% polyacrylamide gel; the radioactive bands were visualized using a PHOSPHORIMAGER™. To determine the total amounts of IKKα and IKKβ in each sample, 30 μg of the whole-cell extract protein was resolved on a 7.5% polyacrylamide gel and analyzed by Western blot using antibody against IKKα and IKKβ.

For test [3], the system named is cyclin D1, cdc2, p21, p27, GADD45β, xIAP, Bfl-1/A1, Bcl-2, BclX1, cFLIP, survivin, c-myc, COX2. Nature of the test: Western blot of cell cycle, anti-apoptotic, proliferative and metastatic gene products in U937 cells. Conditions: 10 μM. As to the method:
Western blot analysis. Thirty to fifty micrograms of cytoplasmic, nuclear or whole cell protein was resolved on 10% SDS-PAGE gel, transferred to a nitrocellulose membrane, blocked with 5% non-fat milk, and probed with specific antibodies as per manufacturer's recommended protocol. The blots were washed, exposed to HRP-conjugated secondary antibodies for 1 h, and detected by ECL reagent (Amersham Pharmacia Biotechnology, Piscataway, N.J.). The bands were quantitated using a Personal Densitometer Scan v1.30 using Imagequant software version 3.3 (Molecular Dynamics).

`CC=C1C(=O)C[C@H]2[C@@H]3CCC4=CC(=O)CC[C@]4(C)[C@H]3CC[C@]12C` [guggulsterone, 4,17(20)-pregnadiene-3,16-dione]: in the test on NF-κB [1] (H1299, 50 μM, 4 hours), the “NF-κB-dependent SEAP expression induced by TNFR, TRADD, NIK and IKKβ plasmids” value is “suppressed reporter gene expression induced by TNFR, TRADD, NIK and IKKβ plasmids”; the “NF-κB-dependent SEAP expression induced by p65 plasmid” value is “had no effect on that induced by p65”. Moreover, the “TNF-induced NF-κB-dependent SEAP expression” value in the test with NF-κB [1] (H1299 cells, 0.1 nM TNF 24 hours) is reported as “inhibited by guggulsterone in a dose-dependent manner”. In the test on tumor cells (2000 cells in 0.1 ml, six days, MTT), the “proliferation of head and neck, lung, melanoma, multiple myeloma, leukemia and breast cancer cells” value is on record as “suppressed the proliferation of a wide variety of cells”. Besides, the “proliferation of human leukemia, head and neck carcinoma, multiple myeloma, lung carcinoma, melanoma, breast carcinoma and ovarian cancer cell lines” value with tumor cells (Example 2) is “inhibits the proliferation”. The “proliferation of drug resistant cancer cells” value in the test with tumor cells (STI-resistant K562, dexamethasone resistant MM1, doxorubicin resistant breast cancer cell lines) is on record as “inhibited the proliferation of drug resistant cancer cells”. In the test on U937 cells, the “proliferation of U937 cells, 3H-thymidine incorporation” value is “inhibits proliferation in U937 cells”. The “TNF-induced apoptosis, calcein AM-based live/dead assay” value with KBM-5 cells is “TNF-induced apoptosis was significantly enhanced”. The “constitutively active NF-κB in U266 and MDA 1986 cells” value in the test with NF-κB [2] is listed as “completely inhibited this constitutively active NF-κB”. The “TNF-induced IKK activation” value in the test with IKK (50 μM, 4 h, 0.1 nM TNF) was “completely suppressed this activation”. In addition, the “expression of IKKα and IKKβ proteins” value in the test on IKK (whole cell extracts, immunoblot) is reported as “had no direct effect on the expression of either IKKα”. Also, in test [3], the “gene products involved in antiapoptosis (xIAP, Bfl-1/A1, Bcl-2, BclX1, cFLIP, survivin), proliferation (c-myc) and metastasis (COX2)” value is recorded as “inhibited the gene products involved in antiapoptosis”; the “levels of cyclin D1 and cdc2” value is “decrease in the levels of cyclin D1 and cdc2”; the “levels of p21, p27 and GADD45β” value was “increase in the levels of cyclin dependent kinase inhibitor p21, p27”.
